Where a name gives a salt, the structure may show the parent alone.
How the values were obtained:
[1] = system: E. coli UFR32; assay: MIC of ceftazidime alone and in combination with compounds (synergy), broth microdilution; assay type: cell-based; settings: MIC of ceftazidime with compound fixed at 4 μg/mL; strain UFR32 (TEM-1, VEB-1, OXA-10)
[2] = system: E. cloacae UFR70; assay: as above; assay type: cell-based; settings: MIC of ceftazidime with compound fixed at 4 μg/mL; strain UFR70 (TEM-1, CTX-M-15, CMY-2, OXA-1, Porin loss)
[3] = system: E. cloacae P99; assay: MIC of compounds alone, broth microdilution; assay type: cell-based; settings: Enterobacter cloacae; strain P99 (AmpC); read-out: MIC compounds of the invention alone
Protocol: (§1) Compounds of the present invention were assessed against genotyped bacterial strains alone or in combination with the β-lactam ceftazidime (CAZ). […] Briefly, compounds alone according to the invention were prepared in DMSO and spotted (2 μL each) on sterile polystyrene plates (Corning, 3788). […] Log phase bacterial suspensions were adjusted to a final density of 5×10^5 cfu/mL in cation-adjusted Mueller-Hinton broth (Becton-Dickinson) and added to each well (98 μL). Microplates were incubated for 16-20 h at 35° C. in ambient air. The MIC of the compounds was defined as the lowest concentration of said compounds that prevented bacterial growth as read by visual inspection.

[4] = system: P. aeruginosa CIP107051; assay: MIC of compounds alone, broth microdilution; assay type: cell-based; settings: Pseudomonas aeruginosa; strain CIP107051 (TEM-24); read-out: MIC compounds of the invention alone
Protocol: as §1

[5] = system: E. coli RGN238; assay: MIC of compounds alone, broth microdilution; assay type: cell-based; settings: Escherichia coli, RGN238, read-out: MIC compounds of the invention alone
Protocol: as §1

[6] = system: E. coli 190317; assay: MIC of compounds alone, broth microdilution; assay type: cell-based; settings: Escherichia coli; strain 190317 (TEM-1, SHV-12, CTX-M-15, OXA-1); read-out: MIC compounds of the invention alone
Protocol: as §1

[7] = system: E. cloacae UFR85; assay: MIC of ceftazidime alone and in combination with compounds (synergy), broth microdilution; assay type: cell-based; settings: MIC of ceftazidime with compound fixed at 4 μg/mL; strain UFR85 (TEM-1, CTX-M-15, derepressed AmpC)
[8] = system: E. cloacae P99; assay: as above; assay type: cell-based; settings: MIC of ceftazidime with compound fixed at 4 μg/mL; strain P99 (AmpC)
[9] = system: E. coli UFR61O; assay: as above; assay type: cell-based; settings: MIC of ceftazidime with compound fixed at 4 μg/mL; strain UFR61O (TEM-1, KPC-2)
[10] = biological target: T1, CTX-M-15 (Escherichia coli, UniProt Q9EXV5); assay: β-lactamase inhibitory activity, IC50 (nitrocefin hydrolysis); assay type: biochemical
T1 construct: made in house; host or cells: E. coli expression vector
Protocol: (§2) Method 1: β-lactamase Inhibitory Activity, Determination of IC50 (Table 1)
(§3) Enzyme activity was monitored by spectrophotometric measurement of nitrocefin (NCF—TOKU-E, N005) hydrolysis at 485 nm, at room temperature and in assay buffer A: 100 mM Phosphate pH7, 2% glycerol and 0.1 mg/mL Bovine serum albumin (Sigma, B4287). Enzymes were cloned in E. coli expression vector, expressed and purified in house using classical procedures. To a transparent polystyrene plate (Corning, 3628) were added in each well 5 μL DMSO or inhibitor dilutions in DMSO and 80 μL enzyme in buffer A. Plates were immediately read at 485 nm in a microplate spectrophotometer (BioTek, PowerWave HT) to enable background subtraction. After 30 min of pre-incubation at room temperature, 15 μL of NCF (200 μM final) were finally added in each well. Final enzyme concentrations were 0.1 nM (TEM-1), 0.075 nM (SHV-1), 0.4 nM (CTX-M-15), 1 nM (KPC-2), 0.2 nM (P99 AmpC), 0.2 nM (CMY-37), 0.4 nM (AmpC P. aeruginosa), 0.2 nM (OXA-1), 1.2 nM (OXA-11), 0.4 nM (OXA-15) and 0.3 nM (OXA-48). After 20 min incubation at room temperature, plates were once again read at 485 nm. Enzyme activity was obtained by subtracting the final signal by the background, and was converted to enzyme inhibition using non inhibited wells. IC50 curves were fitted to a classical Langmuir equilibrium model with Hill slope using XLFIT (IDBS).

[11] = biological target: T2, TEM-1 (Escherichia coli, UniProt P62593); assay: as above; assay type: biochemical; settings: class (A); 30 min pre-incubation; NCF 200 μM
T2 construct: made in house; host or cells: E. coli expression vector
Protocol: as §2, §3

[12] = biological target: T3, SHV-1 (Klebsiella pneumoniae, UniProt P0AD64); assay: as above; assay type: biochemical
T3 construct: made in house; host or cells: E. coli expression vector
Protocol: as §2, §3

[13] = biological target: T4, OXA-1 (Escherichia coli, UniProt P13661); assay: as above; assay type: biochemical
T4 construct: made in house; host or cells: E. coli expression vector
Protocol: as §2, §3

[14] = biological target: T5, OXA-48 (Klebsiella pneumoniae, UniProt Q6XEC0); assay: as above; assay type: biochemical
T5 construct: made in house; host or cells: E. coli expression vector
Protocol: as §2, §3

[15] = biological target: T6, OXA-11 (Pseudomonas aeruginosa, UniProt Q06778); assay: as above; assay type: biochemical
T6 construct: made in house; host or cells: E. coli expression vector
Protocol: as §2, §3

[16] = biological target: T7, KPC-2 (Klebsiella pneumoniae, UniProt Q9F663); assay: as above; assay type: biochemical
T7 construct: made in house; host or cells: E. coli expression vector
Protocol: as §2, §3

[17] = system: K. pneumoniae BAA-1898; assay: microbe, parasite or virus in culture; assay type: cell-based; settings: Klebsiella pneumoniae, BAA1898, read-out: MIC compounds of the invention alone
Outline: (§4)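 Visual endpoint: no growth after 16-20 h at 35° C in ambient air defines MIC. Test medium was cation-adjusted Mueller-Hinton broth seeded with 5×10^5 cfu/mL log-phase bacteria, compounds given singly or alongside ceftazidime.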

[18] = system: E. coli UFR18; assay: MIC of ceftazidime alone and in combination with compounds (synergy), broth microdilution; assay type: cell-based; settings: MIC of ceftazidime with compound fixed at 4 μg/mL; strain UFR18 (CTX-M-15, OXA-204)
[19] = system: P. aeruginosa UFR35; assay: as above; assay type: cell-based; settings: MIC of ceftazidime with compound fixed at 4 μg/mL; strain UFR35 (OXA-23)
Outline: as §4

[20] = system: P. aeruginosa UFR48; assay: as above; assay type: cell-based; settings: MIC of ceftazidime with compound fixed at 4 μg/mL; strain UFR48 (VIM-2)
Outline: as §4

[21] = system: P. aeruginosa UFR92; assay: as above; assay type: cell-based; settings: MIC of ceftazidime with compound fixed at 4 μg/mL; strain UFR92 (derepressed AmpC, OprD−)
Outline: as §4

[22] = system: P. aeruginosa UFR90; assay: as above; assay type: cell-based; settings: MIC of ceftazidime with compound fixed at 4 μg/mL; strain UFR90 (derepressed AmpC, OprD−)
Outline: as §4

[23] = system: E. cloacae UFR38; assay: as above; assay type: cell-based; settings: MIC of ceftazidime with compound fixed at 4 μg/mL; strain UFR38 (CTX-M-15, NDM-1)

T6 sequence (Q06778 21-266): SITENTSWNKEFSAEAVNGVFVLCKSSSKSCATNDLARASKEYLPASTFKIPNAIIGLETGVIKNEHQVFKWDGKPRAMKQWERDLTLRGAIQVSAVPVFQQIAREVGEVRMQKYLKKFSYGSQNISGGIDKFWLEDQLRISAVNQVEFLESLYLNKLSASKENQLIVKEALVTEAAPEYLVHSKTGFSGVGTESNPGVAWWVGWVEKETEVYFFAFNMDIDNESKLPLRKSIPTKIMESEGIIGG
T7 sequence (Q9F663 25-293 limits assumed): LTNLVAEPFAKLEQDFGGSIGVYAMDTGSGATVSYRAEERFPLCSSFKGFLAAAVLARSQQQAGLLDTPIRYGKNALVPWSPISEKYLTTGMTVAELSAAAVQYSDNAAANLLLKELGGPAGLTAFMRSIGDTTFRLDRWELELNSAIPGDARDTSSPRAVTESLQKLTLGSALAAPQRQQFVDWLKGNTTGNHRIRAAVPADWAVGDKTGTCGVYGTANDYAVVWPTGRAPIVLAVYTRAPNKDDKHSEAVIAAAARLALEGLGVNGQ
T2 sequence (P62593 24-286 limits assumed): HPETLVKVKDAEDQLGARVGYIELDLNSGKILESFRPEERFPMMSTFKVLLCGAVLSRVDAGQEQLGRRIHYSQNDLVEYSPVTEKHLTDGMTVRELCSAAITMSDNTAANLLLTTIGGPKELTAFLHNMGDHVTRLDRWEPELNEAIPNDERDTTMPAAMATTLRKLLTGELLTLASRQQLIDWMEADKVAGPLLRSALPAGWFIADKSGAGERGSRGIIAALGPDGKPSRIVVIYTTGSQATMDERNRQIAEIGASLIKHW
T4 sequence (P13661 26-276): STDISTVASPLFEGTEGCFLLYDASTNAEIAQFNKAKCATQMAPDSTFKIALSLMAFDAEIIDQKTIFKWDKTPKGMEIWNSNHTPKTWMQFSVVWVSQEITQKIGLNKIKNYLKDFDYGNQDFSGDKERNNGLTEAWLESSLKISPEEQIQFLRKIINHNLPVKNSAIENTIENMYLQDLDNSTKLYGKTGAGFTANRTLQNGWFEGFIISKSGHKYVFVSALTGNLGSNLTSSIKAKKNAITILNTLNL
T5 sequence (Q6XEC0 23-265 limits assumed): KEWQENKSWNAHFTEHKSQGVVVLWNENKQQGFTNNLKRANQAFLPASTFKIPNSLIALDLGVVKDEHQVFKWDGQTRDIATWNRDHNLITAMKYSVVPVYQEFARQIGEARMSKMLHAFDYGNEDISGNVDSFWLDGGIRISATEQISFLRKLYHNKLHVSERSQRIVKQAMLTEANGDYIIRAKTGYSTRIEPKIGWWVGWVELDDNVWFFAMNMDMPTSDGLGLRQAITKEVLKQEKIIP
T1 sequence (Q9EXV5 entry or part of it): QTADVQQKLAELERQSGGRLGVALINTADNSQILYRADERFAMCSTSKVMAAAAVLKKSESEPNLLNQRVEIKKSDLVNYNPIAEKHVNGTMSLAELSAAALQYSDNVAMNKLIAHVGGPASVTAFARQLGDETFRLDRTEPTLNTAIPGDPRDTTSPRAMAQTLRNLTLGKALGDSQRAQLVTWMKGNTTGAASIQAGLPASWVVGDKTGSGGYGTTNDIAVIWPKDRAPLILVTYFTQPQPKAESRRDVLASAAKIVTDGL
T3 sequence (P0AD64 22-286): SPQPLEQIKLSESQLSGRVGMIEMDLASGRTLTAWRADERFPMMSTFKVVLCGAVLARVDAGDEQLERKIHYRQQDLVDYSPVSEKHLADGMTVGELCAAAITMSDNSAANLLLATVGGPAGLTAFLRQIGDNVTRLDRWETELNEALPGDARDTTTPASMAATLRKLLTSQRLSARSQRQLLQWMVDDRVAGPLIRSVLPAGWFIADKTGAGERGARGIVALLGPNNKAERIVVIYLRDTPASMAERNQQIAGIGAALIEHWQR

## CNC(=O)CON=C1C[C@@H](C(N)=O)N2C[C@@H]1N(OS(=O)(=O)[O-])C2=O.[Na+] (mixture of isomers) [Example 2, sodium [(2S,5S)-2-carbamoyl-4-[2-(methylamino)-2-oxo-ethoxy]imino-7-oxo-1,6-diazabicyclo[3.2.1]octan-6-yl] sulfate]
[1]
  MIC, combination of CAZ and compounds of the invention at 4 μg/mL: 0.5 µg/mL
[2]
  MIC, combination of CAZ and compounds of the invention at 4 μg/mL: 8 µg/mL
[3]
  MIC: > 32 µg/mL
[4]
  MIC: > 32 µg/mL
[5]
  MIC: > 32 µg/mL
[6]
  MIC: 4 µg/mL
[7]
  MIC, combination of CAZ and compounds of the invention at 4 μg/mL: 1 µg/mL
[8]
  MIC, combination of CAZ and compounds of the invention at 4 μg/mL: 4 µg/mL
[9]
  MIC, combination of CAZ and compounds of the invention at 4 μg/mL: 0.5 µg/mL
[10]
  IC50: 0.76 nM
[11]
  IC50: 1.7 nM
[12]
  IC50: 0.74 nM
[13]
  IC50: 6.1 nM
[14]
  IC50: 3.5 nM
[15]
  IC50: 6.8 nM
[16]
  IC50: 3.9 nM
[17]
  MIC: > 32 µg/mL
[18]
  MIC, combination of CAZ and compounds of the invention at 4 μg/mL: 1 µg/mL

## NC[C@@H]1CC(=NOCC(N)=O)[C@@H]2CN1C(=O)N2OS(=O)(=O)O (mixture of isomers) [Example 5, sodium and 2,2,2-trifluroacetate [(2S,5S)-4-(2-amino-2-oxo-ethoxy)imino-2-(azaniumylmethyl)-7-oxo-1,6-diazabicyclo[3.2.1]octan-6-yl] sulfate]
[1]
  MIC, combination of CAZ and compounds of the invention at 4 μg/mL: ≤0.25 µg/mL
[2]
  MIC, combination of CAZ and compounds of the invention at 4 μg/mL: 1 µg/mL
[3]
  MIC: 0.063 µg/mL
[4]
  MIC: 4 µg/mL
[5]
  MIC: > 32 µg/mL
[6]
  MIC: 0.25 µg/mL
[7]
  MIC, combination of CAZ and compounds of the invention at 4 μg/mL: ≤0.25 µg/mL
[8]
  MIC, combination of CAZ and compounds of the invention at 4 μg/mL: <0.25 µg/mL
[9]
  MIC, combination of CAZ and compounds of the invention at 4 μg/mL: <0.25 µg/mL
[19]
  MIC, combination of CAZ and compounds of the invention at 4 μg/mL: <0.25 µg/mL
[20]
  MIC, combination of CAZ and compounds of the invention at 4 μg/mL: <0.25 µg/mL
[21]
  MIC, combination of CAZ and compounds of the invention at 4 μg/mL: <0.25 µg/mL
[22]
  MIC, combination of CAZ and compounds of the invention at 4 μg/mL: <0.25 µg/mL
[10]
  IC50: 130 nM
[11]
  IC50: 110 nM
[12]
  IC50: 64 nM
[13]
  IC50: 370 nM
[14]
  IC50: 180 nM
[15]
  IC50: 430 nM
[16]
  IC50: 1800 nM
[17]
  MIC: > 32 µg/mL
[23]
  MIC, combination of CAZ and compounds of the invention at 4 μg/mL: <0.25 µg/mL
[18]
  MIC, combination of CAZ and compounds of the invention at 4 μg/mL: <0.25 µg/mL

## NC[C@@H]1CC(=O)[C@@H]2CN1C(=O)N2OS(=O)(=O)O [Example 6, 2,2,2-trifluroacetate and sodium [(2S,5S)-2-(azaniumylmethyl)-4,7-dioxo-1,6-diazabicyclo[3.2.1]octan-6-yl] sulfate]
[1]
  MIC, combination of CAZ and compounds of the invention at 4 μg/mL: <0.25 µg/mL
[2]
  MIC, combination of CAZ and compounds of the invention at 4 μg/mL: 2 µg/mL
[3]
  MIC: 1 µg/mL
[4]
  MIC: 8 µg/mL
[5]
  MIC: > 32 µg/mL
[6]
  MIC: 1 µg/mL
[7]
  MIC, combination of CAZ and compounds of the invention at 4 μg/mL: ≤0.25 µg/mL
[8]
  MIC, combination of CAZ and compounds of the invention at 4 μg/mL: <0.25 µg/mL
[9]
  MIC, combination of CAZ and compounds of the invention at 4 μg/mL: 1 µg/mL
[19]
  MIC, combination of CAZ and compounds of the invention at 4 μg/mL: <0.25 µg/mL
[20]
  MIC, combination of CAZ and compounds of the invention at 4 μg/mL: ≤0.25 µg/mL
[21]
  MIC, combination of CAZ and compounds of the invention at 4 μg/mL: ≤0.25 µg/mL
[22]
  MIC, combination of CAZ and compounds of the invention at 4 μg/mL: <0.25 µg/mL
[10]
  IC50: 510 nM
[11]
  IC50: 280 nM
[12]
  IC50: 340 nM
[13]
  IC50: 1200 nM
[14]
  IC50: 840 nM
[15]
  IC50: 1600 nM
[16]
  IC50: 5100 nM
[17]
  MIC: > 32 µg/mL
[23]
  MIC, combination of CAZ and compounds of the invention at 4 μg/mL: <0.25 µg/mL
[18]
  MIC, combination of CAZ and compounds of the invention at 4 μg/mL: ≤0.25 µg/mL

— patent US10570131B2, “Heterocyclic compounds and their use in preventing or treating bacterial infections” (MUTABILIS, priority 2015, dated 2020)
